From ChEMBL document CHEMBL1201862, “PubChem BioAssay data set” (2004)
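Cells were grown in 96-well plates and exposed to each compound for 48 hours at five concentrations; endpoints were interpolated linearly between bracketing concentrations, or set to the highest concentration if not reached. Here, GI50 denotes the concentration required for 50% inhibition of growth.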 Calls of active or inactive are those of the source. Cut-off read from the data, not from the text of the source: active = GI50 up to about 1.1 µM and inactive = higher.

Key:
Assay in all cases: NCI-60 cell line screen, 48 h
786-0 = tested on: 786-0
DLD-1 = tested on: DLD-1
DMS-273 = tested on: DMS-273
HOP-18 = tested on: HOP-18
M19-MEL = tested on: M19-MEL
SNB-78 = tested on: SNB-78
XF498 = tested on: XF498
LXFL 529 = tested on: LXFL 529
RXF 631 = tested on: RXF 631

Compound	GI50 (786-0)	GI50 (DLD-1)	GI50 (DMS-273)	GI50 (HOP-18)	GI50 (M19-MEL)	GI50 (SNB-78)	GI50 (XF498)	GI50 (LXFL 529)	GI50 (RXF 631)
NNC(=O)CCc1ccc2ccc3ccccc3c2c1	94.4 µM (inactive)	–	–	–	–	–	–	–	–
COc1cccc2c1C(=O)c1c(O)c3c(c(O)c1C2=O)C[C@@](O)(C(=O)CO)C[C@@H]3OC1CC(N2CCOCC2)C(O)C(C)O1 (stereo partly drawn)	–	0.00277 µM (active)	0.00409 µM (active)	0.0034 µM (active)	0.00552 µM (active)	0.0025 µM (active)	0.0025 µM (active)	–	–
CC(=O)OC1CC2(O)C(CCC3(C)C(c4ccc(=O)oc4)CCC32O)C2(C)C1=CC(O)C1OC12 (stereo not drawn)	–	0.0506 µM (active)	0.04 µM (active)	0.048 µM (active)	0.0502 µM (active)	0.0442 µM (active)	0.0693 µM (active)	–	–
COc1cccc(C2C(C(=O)O)=C(CO)Oc3cc4c(cc32)OCO4)c1OC (stereo not drawn)	–	> 100 µM (inactive)	–	> 100 µM (inactive)	> 100 µM (inactive)	> 100 µM (inactive)	9.25 µM (inactive)	> 100 µM (inactive)	> 100 µM (inactive)
COC(=O)C1=C(C)N2CCOC2(C)C(C(=O)OC)C1c1ccc[nH]1 (stereo not drawn)	–	> 100 µM (inactive)	–	–	> 100 µM (inactive)	–	–	> 100 µM (inactive)	–
COC(=O)c1cc(NC2OCC(OC(C)=O)C(OC(C)=O)C2OC(C)=O)nc(SC)c1C(=O)OC (stereo not drawn)	> 100 µM (inactive)	–	–	–	–	–	–	–	–
CN1c2ccccc2C(=O)NC12CCN(CCCC(=O)c1ccc(F)cc1)CC2	74.3 µM (inactive)	–	–	–	–	–	–	–	–
Cc1cc(C)nc(NS(=O)(=O)c2ccc(Nc3c4ccccc4nc4c(C(=O)N5CCN(CCOS(C)(=O)=O)CC5)cccc34)cc2)n1	–	> 100 µM (inactive)	–	–	> 100 µM (inactive)	> 100 µM (inactive)	> 100 µM (inactive)	–	–
C=CCC(O[Si](C)(C)C(C)(C)C)c1cc(O[Si](C)(C)C(C)(C)C)ccc1OC (stereo not drawn)	–	> 70.3 µM (inactive)	> 95.1 µM (inactive)	> 100 µM (inactive)	–	> 49.2 µM (inactive)	> 58.5 µM (inactive)	–	–
COc1ccc(OC)c(SC(CC(=O)c2ccccc2)c2ccccc2)c1 (stereo not drawn)	15.6 µM (inactive)	–	–	–	–	–	–	–	–
CN1CCN(c2cc(-c3cc4ccccc4o3)oc(=O)c2C#N)CC1	–	76 µM (inactive)	57.9 µM (inactive)	–	–	> 100 µM (inactive)	> 100 µM (inactive)	81.7 µM (inactive)	41.4 µM (inactive)
COc1cc(CCCOC2OC(COC3OCC(O)C(O)C3O)C(O)C(O)C2O)cc2cc(-c3ccc4c(c3)OCO4)oc12 (stereo not drawn)	–	> 175 µM (inactive)	> 175 µM (inactive)	–	> 175 µM (inactive)	> 175 µM (inactive)	> 175 µM (inactive)	–	–
Cc1ccc2cc3cccc(C(=O)NCCN(C)C)c3nc2c1	–	0.935 µM (active)	0.647 µM (active)	2.23 µM (inactive)	0.977 µM (active)	1.37 µM (inactive)	0.977 µM (active)	–	–
O=C(OCc1ccccc1)C(Cc1ccccc1)N(Cc1ccccc1)Cc1ccccc1 (stereo not drawn)	–	> 100 µM (inactive)	44.6 µM (inactive)	–	76.7 µM (inactive)	> 100 µM (inactive)	21.8 µM (inactive)	21.9 µM (inactive)	–
